Data reported in PubChem BioAssay (NCI).
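Five concentrations, 48 hours, 96-well plates. The concentration for full growth arrest is given as TGI.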

Key:
Experiment in all cases: inhibition of tumour cell growth, NCI panel, 48 h
[1] = system: A498 renal
[2] = system: HCT-15 colon
[3] = system: HCC-2998 colon
[4] = system: NCI/ADR-RES ovarian
[5] = system: M14 melanoma
[6] = system: HL-60(TB) leukemia
[7] = system: 786-0 renal
[8] = system: OVCAR-3 ovarian
[9] = system: RPMI-8226 leukemia
[10] = system: HOP-62 NSCLC
[11] = system: EKVX NSCLC
[12] = system: HOP-92 NSCLC
[13] = system: NCI-H522 lung
[14] = system: CAKI-1 renal
[15] = system: SN12C renal
[16] = system: A549 NSCLC
[17] = system: SW-620 colon
[18] = system: OVCAR-8 ovarian
[19] = system: SK-MEL-28 melanoma
[20] = system: SF-539 CNS
[21] = system: UO-31 renal
[22] = system: SF-295 CNS
[23] = system: UACC-62 melanoma
[24] = system: BT-549 breast
[25] = system: SK-OV-3 ovarian
[26] = system: SK-MEL-5 melanoma
[27] = system: RXF 393 renal
[28] = system: SNB-19 CNS
[29] = system: MDA-MB-231 breast
[30] = system: CCRF-CEM leukemia
[31] = system: MOLT-4 leukemia
[32] = system: OVCAR-4 ovarian
[33] = system: DU-145 prostate
[34] = system: NCI-H23 lung
[35] = system: U251 CNS
[36] = system: T-47D breast
[37] = system: SF-268 CNS
[38] = system: K-562 leukemia
[39] = system: LOX IMVI melanoma
[40] = system: MDA-MB-435
[41] = system: UACC-257 melanoma
[42] = system: MDA-N
[43] = system: SK-MEL-2 melanoma
[44] = system: MALME-3M melanoma
[45] = system: PC-3 prostate
[46] = system: MCF7 breast
[47] = system: HCT-116 colon
[48] = system: HS 578T breast
[49] = system: COLO 205 colon
[50] = system: IGROV1 ovarian
[51] = system: HT29 colon
[52] = system: OVCAR-5 ovarian
[53] = system: ACHN renal
[54] = system: TK-10 renal
[55] = system: KM12 colon
[56] = system: NCI-H460 lung
[57] = system: SR leukemia

In the case of `O=C1O/C(=C\c2ccc(O)c(Br)c2)C(c2ccc(O)c(Cl)c2)=C1Br`, the TGI [1] is reported as 37.3 µM, the TGI [2] is reported as 25.3 µM and the TGI [3] is reported as 16.7 µM. For the same molecule, the TGI [4] was 75.7 µM, the TGI [5] was 36.5 µM and the TGI [6] was greater than 100 µM. The TGI [7] was 40.2 µM, the TGI [8] was 33.7 µM and the TGI [9] was 38.6 µM. It also gave a TGI [10] of 40.9 µM, a TGI [11] of 49.3 µM and a TGI [12] of 35.7 µM. It also gave a TGI [13] of 28.6 µM, a TGI [14] of 75.2 µM and a TGI [15] of 86.4 µM. For the same molecule, the TGI [16] was greater than 100 µM, the TGI [17] was 34.1 µM and the TGI [18] was 90 µM. It also gave a TGI [19] of 32 µM, a TGI [20] of 44 µM and a TGI [21] of 77.4 µM. For the same molecule, the TGI [22] was 30.4 µM, the TGI [23] was 31.6 µM and the TGI [24] was 63.1 µM. It also gave a TGI [25] of 40.9 µM, a TGI [26] of 29.8 µM and a TGI [27] of 40.9 µM. It also gave a TGI [28] of 66.5 µM, a TGI [29] greater than 100 µM and a TGI [30] of 51.1 µM. The TGI [31] was greater than 100 µM, the TGI [32] was 25.8 µM and the TGI [33] was 43 µM. The TGI [34] was 54.1 µM, the TGI [35] was 29.8 µM and the TGI [36] was 47 µM. For the same molecule, the TGI [37] was 33.7 µM, the TGI [38] was 58.5 µM and the TGI [39] was 71.9 µM. It also gave a TGI [40] of 46.5 µM, a TGI [41] of 33.3 µM and a TGI [42] of 64.9 µM. It also gave a TGI [43] of 39.2 µM, a TGI [44] of 37.3 µM and a TGI [45] of 32.7 µM. It also gave a TGI [46] of 34.6 µM, a TGI [47] of 26.5 µM and a TGI [48] of 70.9 µM. It also gave a TGI [49] of 32 µM, a TGI [50] of 47.2 µM and a TGI [51] of 25.5 µM. It also gave a TGI [52] of 33.4 µM, a TGI [53] of 33.2 µM and a TGI [54] of 48.3 µM. The TGI [55] was 31.2 µM, the TGI [56] was 48.4 µM and the TGI [57] was 28.1 µM.
